Results from ChEMBL document CHEMBL4823243, “Synergistic induction of apoptosis in resistant head and neck carcinoma and leukemia by alkoxyamide-based histone deacetylase inhibitors” (Eur J Med Chem, 2021).
Active and inactive are the calls of the source. No cut-off for these calls is given here.

Columns and labels:
[1] = target: T1, Histone deacetylase (Homo sapiens) (UniProt Q13547+O15379+Q9UBN7+Q92769+Q9UQL6+Q8WUI4+Q9BY41+Q96DB2+P56524+Q9UKV0+Q969S8); assay: Inhibition of HDAC in human CAL-27 cells assessed as combination index at 0.1 uM measured in presence of 10 uM cDDP by MTT-based Chou-Talalay method; assay type: cell-based
[2] = target: T1, Histone deacetylase (Homo sapiens); assay: Inhibition of HDAC in human CAL-27 cells assessed as combination index at 0.3 uM measured in presence of 2 uM cDDP by MTT-based Chou-Talalay method; assay type: cell-based
[3] = target: T1, Histone deacetylase (Homo sapiens); assay: Inhibition of HDAC in human Cal27CisR cells assessed as combination index at 0.4 uM measured in presence of 20 uM cDDP by MTT-based Chou-Talalay method; assay type: cell-based
[4] = target: Class 1 histone deacetylase (Homo sapiens) (UniProt Q13547+O15379+Q92769+Q9BY41); assay: Inhibition of class-1 HDAC in human CAL-27 cells assessed as induction of histone H-3 acetylation at 5 uM for 24 hrs by Western blot analysis; assay type: cell-based
[5] = target: T1, Histone deacetylase (Homo sapiens); assay: Inhibition of HDAC in human CAL-27 cells assessed as combination index at 0.4 uM measured in presence of 10 uM cDDP by MTT-based Chou-Talalay method; assay type: cell-based
[6] = target: T1, Histone deacetylase (Homo sapiens); assay: Inhibition of HDAC in human Cal27CisR cells assessed as combination index at 0.1 uM measured in presence of 10 uM cDDP by MTT-based Chou-Talalay method; assay type: cell-based
[7] = target: T1, Histone deacetylase (Homo sapiens); assay: Inhibition of HDAC in human CAL-27 cells assessed as potentiation of cisplatin-induced cytotoxicity by measuring fold reduction in cisplatin IC50 at 0.3 to 0.5 uM pretreated for 48 hrs followed by cisplatin addition and measured after 72 hrs by MTT assay relative to cisplatin alone; assay type: cell-based; conditions: dose 0.3-0.5 µM, time 120.0 hrs
[8] = target: T1, Histone deacetylase (Homo sapiens); assay: Inhibition of HDAC in human CAL-27 cells assessed as combination index at 0.2 uM measured in presence of 10 uM cDDP by MTT-based Chou-Talalay method; assay type: cell-based
[9] = target: Histone deacetylase; assay: Inhibition of HDAC in human Cal27CisR cells assessed as potentiation of cisplatin-induced cytotoxicity by measuring cisplatin IC50 at 0.3 to 0.5 uM pretreated for 48 hrs followed by cisplatin addition and measured after 72 hrs by MTT assay (reference value: 3.57 uM); assay type: cell-based
[10] = target: T1, Histone deacetylase (Homo sapiens); assay: Inhibition of HDAC in human Cal27CisR cells assessed as combination index at 0.1 uM measured in presence of 50 uM cDDP by MTT-based Chou-Talalay method; assay type: cell-based
[11] = target: T1, Histone deacetylase (Homo sapiens); assay: Inhibition of HDAC in human Cal27CisR cells assessed as combination index at 0.4 uM measured in presence of 10 uM cDDP by MTT-based Chou-Talalay method; assay type: cell-based
[12] = target: T1, Histone deacetylase (Homo sapiens); assay: Inhibition of HDAC in human CAL-27 cells assessed as combination index at 0.35 uM measured in presence of 10 uM cDDP by MTT-based Chou-Talalay method; assay type: cell-based
[13] = target: Histone deacetylase; assay: Inhibition of HDAC in human CAL-27 cells using Boc-Lys (acetyl)-AMC as substrate preincubated for 18 hrs followed by susbtrate addition and measured after 3 hrs by fluorescence microplate reader assay; assay type: cell-based
[14] = target: T1, Histone deacetylase (Homo sapiens); assay: Inhibition of HDAC in human Cal27CisR cells assessed as combination index at 0.6 uM measured in presence of 10 uM cDDP by MTT-based Chou-Talalay method; assay type: cell-based
[15] = target: T1, Histone deacetylase (Homo sapiens); assay: Inhibition of HDAC in human CAL-27 cells assessed as combination index at 0.4 uM measured in presence of 5 uM cDDP by MTT-based Chou-Talalay method; assay type: cell-based
[16] = target: T1, Histone deacetylase (Homo sapiens); assay: Inhibition of HDAC in human Cal27CisR cells assessed as combination index at 0.6 uM measured in presence of 50 uM cDDP by MTT-based Chou-Talalay method; assay type: cell-based
[17] = target: T1, Histone deacetylase (Homo sapiens); assay: Inhibition of HDAC in human Cal27CisR cells assessed as potentiation of cisplatin-induced cytotoxicity by measuring fold reduction in cisplatin IC50 at 0.3 to 0.5 uM pretreated for 48 hrs followed by cisplatin addition and measured after 72 hrs by MTT assay relative to cisplatin alone; assay type: cell-based; conditions: dose 0.3-0.5 µM, time 120.0 hrs
[18] = system: CAL-27; assay: Induction of apoptosis in cisplatin resistant human CAL-27 cells assessed as caspase 7 activation at 0.3 uM pretreated for 24 hrs followed by cisplatin treatment and further incubated for 18 hrs by Caspase3/7 detection reagent based assay; assay type: functional, cell-based; conditions: time 42.0 hrs
[19] = target: T1, Histone deacetylase (Homo sapiens); assay: Inhibition of HDAC in human Cal27CisR cells assessed as combination index at 0.2 uM measured in presence of 10 uM cDDP by MTT-based Chou-Talalay method; assay type: cell-based
[20] = target: T1, Histone deacetylase (Homo sapiens); assay: Inhibition of HDAC in human Cal27CisR cells assessed as combination index at 0.2 uM measured in presence of 20 uM cDDP by MTT-based Chou-Talalay method; assay type: cell-based
[21] = Inhibition of Class 1/2b HDAC in human HL-60 cells by HDAC-Glo assay; assay type: cell-based
[22] = target: T1, Histone deacetylase (Homo sapiens); assay: Inhibition of HDAC in human CAL-27 cells assessed as combination index at 0.35 uM measured in presence of 5 uM cDDP by MTT-based Chou-Talalay method; assay type: cell-based
[23] = target: T1, Histone deacetylase (Homo sapiens); assay: Inhibition of HDAC in human Cal27CisR cells assessed as combination index at 0.2 uM measured in presence of 50 uM cDDP by MTT-based Chou-Talalay method; assay type: cell-based
[24] = target: T1, Histone deacetylase (Homo sapiens); assay: Inhibition of HDAC in human CAL-27 cells assessed as combination index at 0.3 uM measured in presence of 10 uM cDDP by MTT-based Chou-Talalay method; assay type: cell-based
[25] = target: T1, Histone deacetylase (Homo sapiens); assay: Inhibition of HDAC in human Cal27CisR cells assessed as combination index at 0.1 uM measured in presence of 20 uM cDDP by MTT-based Chou-Talalay method; assay type: cell-based
[26] = target: T1, Histone deacetylase (Homo sapiens); assay: Inhibition of HDAC in human Cal27CisR cells assessed as combination index at 0.5 uM measured in presence of 20 uM cDDP by MTT-based Chou-Talalay method; assay type: cell-based
[27] = system: HL-60; assay: Antiproliferative activity against human HL-60 cells assessed as reduction in cell viability for 72 hrs by Celltitre-Glo luminescent assay; assay type: functional, cell-based; conditions: HL-60, 72 h
[28] = system: Cal27CisR; assay: Induction of apoptosis in human Cal27CisR cells assessed as caspase 3 activation at 0.3 uM pretreated for 24 hrs followed by cisplatin treatment and further incubated for 18 hrs by Caspase3/7 detection reagent based assay; assay type: functional, cell-based; conditions: time 42.0 hrs
[29] = target: T1, Histone deacetylase (Homo sapiens); assay: Inhibition of HDAC in human Cal27CisR cells assessed as combination index at 0.3 uM measured in presence of 10 uM cDDP by MTT-based Chou-Talalay method; assay type: cell-based
[30] = system: CAL-27; assay: Induction of apoptosis in human CAL-27 cells assessed as caspase 3 activation at 0.3 uM pretreated for 24 hrs followed by cisplatin treatment and further incubated for 18 hrs by Caspase3/7 detection reagent based assay; assay type: functional, cell-based; conditions: time 42.0 hrs
[31] = target: T1, Histone deacetylase (Homo sapiens); assay: Inhibition of HDAC in human Cal27CisR cells assessed as combination index at 0.4 uM measured in presence of 50 uM cDDP by MTT-based Chou-Talalay method; assay type: cell-based

Row | Compound | CI [1] | CI [2] | CI [3] | Activity [4] | CI [5] | CI [6] | Ratio IC50 [7] | CI [8] | IC50 [9] | CI [10] | CI [11] | CI [12] | IC50 [13] | CI [14] | CI [15] | CI [16] | Ratio IC50 [17] | Activity [18] | CI [19] | CI [20] | also measured
1 | O=C(CCCCCONC(=O)c1ccc2ccccc2n1)NO | 0.22 | 0.88 | 0.26 | Active | 0.02 | 2.62 | 3.2 | 0.04 | 3670 nM | 0.32 | 0.11 | 0.02 | 180 nM | 0.1 | 0.04 | 0.38 | 13.2 | Active | 0.27 | 0.55 | IC50 [21]: 73.2 nM; CI [22]: 0.05; CI [23]: 0.5; CI [24]: 0.02; CI [25]: 5.25; CI [26]: 0.33; IC50 [27]: 270 nM; Activity [28]: Active; CI [29]: 0.16; Activity [30]: Active; CI [31]: 0.47
2 | O=C(CCCCCONC(=O)c1nccc2ccccc12)NO |  |  |  | Active |  |  |  |  |  |  |  |  | 1500 nM |  |  |  |  |  |  |  | IC50 [21]: 85.1 nM; IC50 [27]: 561 nM
3 | O=C(CCCCCONC(=O)c1cc2ccccc2[nH]1)NO | 0.22 | 0.35 | 0.14 | Active | 0.02 | 4.3 | 2.73 | 0.04 | 6590 nM | 0.36 | 0.59 | 0.02 | 120 nM | 0.19 | 0.04 | 0.41 | 7.36 | Active | 2.72 | 0.43 | CI [22]: 0.05; CI [23]: 0.47; CI [24]: 0.02; CI [25]: 2.3; CI [26]: 0.21; Activity [28]: Active; CI [29]: 1.17; Activity [30]: Active; CI [31]: 0.47
